Experimental data published in article PMC8878717, “The Oxime Ethers with Heterocyclic, Alicyclic and Aromatic Moiety as Potential Anti-Cancer Agents” (Molecules, 2022).
Several values for one entry are separate records, joined by “and”; a condition that tells them apart may be missing. Identical values can stand only once. Like-named read-outs stand apart in the source and are kept apart here. One block for each compound: values may come before it.

Assays:
HeLa cells = assay: MTT cytotoxicity test on HeLa cells; format: cell-based, human; conditions: for cytotoxicity / cell viability of HeLa cells at low concentration: 1–10 μg/mL (1 and 10 μg/mL)
Description: Cytotoxic properties of all compounds were determined by 3-(4,5-dimethylthiazol-2-yl)-2,5-diphenyltetrazolium bromide (MTT) test reflecting cell viability. Cytotoxicity screening of all 27 compounds—2-acetylbenzofuran oxime (6) and its oxime ethers (1–5), as well as: 2-acetylthiophene (7–17), cyclohexanone (18–20), acetophenone (21–23), thiazole (24–25), benzothiazole (26–27) oxime ethers—was performed in vitro on human cervical adenocarcinoma (HeLa) cells as the representatives of cancerous cells.
(§1) 2-Acetylbenzofuran, 2-acetylbenzothiophene, 2-acetylthiophene, 2-acetylthiazole, cyclohexanone and acetophenone derivatives were used for in vitro cytotoxicity assays with cervical adenocarcinoma (HeLa), human dermal fibroblasts (HDF), lung epithelial carcinoma (A549), and intestinal epithelial carcinoma (Caco-2) cell lines. A549, Caco-2, and HeLa cells were obtained from Sigma-Aldrich (Germany), and HDF from Biokom (Poland). All cell lines were cultured according to the manufacturer’s protocol under sterile conditions in the presence of 4.9% CO2 at 37 °C. A549 cells were grown in F-12 medium containing 10% fetal bovine serum (FBS) and 1% penicillin/streptomycin. HDF cells were grown in DMEM (low glucose, with 2 mM glutamine) medium containing 10% fetal bovine serum (FBS) and 1% penicillin/streptomycin. Caco-2 cells were grown in EMEM medium containing 10% fetal bovine serum (FBS), 1% non-essential amino acids (NEAA) and 1% penicillin/streptomycin. HeLa cells were grown in DMEM (low glucose, with 2 mM glutamine) medium containing 10% fetal bovine serum (FBS) and 1% gentamycin. After thawing, cells were cultured until they reached sub-confluent state. The cells were then detached using 0.25% trypsin solution and seeded into 24-well or 96-well plates (3 × 10^3 cells per well) for further experiments. After 24 h growth, the tested compounds were added to the cell cultures in concentrations of 1, 10, 50, 100 and 250 μg mL^−1, respectively, and incubated for the next 24 h or 72 h. The MTT test, based on the ability to reduce 3-(4,5-dimethylthiazol 2-yl)-2,5-diphenyltetrazolium bromide (MTT) by mitochondrial dehydrogenases, was performed in triplicate to assess cell metabolic activity and viability. The plates were then read spectrophotometrically at a wavelength of 570 nm. The dose-dependence curves were charted directly on x-/y-axes, with the drug dosages on the x-axis and the cell viability (percentage of viable cells) on the y-axis.

[1] = tested on: human dermal fibroblasts (HDF); assay: MTT cytotoxicity test on HDF cells; format: cell-based; conditions: Homo sapiens, Fibroblast, HDF
Description: (§2) Therefore, compounds showing the highest cytotoxicity (8, 9, 18, 22, 24–27) were further tested on normal human dermal fibroblasts (HDF), A549, Caco-2, and HeLa cells to compare their activity after 24 h and 72 h culture (Figure 5 and Figure 6).
as §1

A549 cells = assay: MTT cytotoxicity test on A549 cells; format: cell-based; conditions: Homo sapiens
Description: as §2, §1

Caco-2 cells = assay: MTT cytotoxicity test on Caco-2 cells; format: cell-based, human; conditions: Homo sapiens
Description: as §2, §1

[2] = MTT cytotoxicity test on HDF cells; format: cell-based, human; conditions: human, human dermal fibroblasts (HDF); 100 μg/mL, 24 h exposure
Description: as §2, §1

[3] = Homo sapiens, HeLa, 24 h, HeLa, 24 h culture, MTT, read-out: EC50 for HeLa Cells
[4] = 24 h, MTT, read-out: EC50 Value HDF 24 h
[5] = 72 h, MTT, read-out: EC50 Value HDF 72 h
[6] = A549, 24 h, MTT, read-out: EC50 Value A549 24 h
[7] = A549, 72 h, MTT, read-out: EC50 Value A549 72 h
[8] = Homo sapiens, HeLa, 72 h, HeLa, 72 h, MTT, read-out: EC50 Value HeLa 72 h
[9] = Caco-2, 24 h, MTT, read-out: EC50 Value Caco-2 24 h
[10] = Caco-2, 72 h, MTT, read-out: EC50 Value Caco-2 72 h

SMILES: CC(=NOCc1ccc(Cl)cc1Cl)c1cc2ccccc2o1 [Compound 1]
EC50 (HeLa cells; [3]): > 250 µg/mL and > 750 µM

SMILES: CC(=NOCc1ccc(C(F)(F)F)cc1)c1cc2ccccc2o1 [Compound 2]
EC50 (HeLa cells; [3]): > 250 µg/mL and > 750 µM

SMILES: CC(=NOCc1ccc(Br)cc1)c1cc2ccccc2o1 [Compound 3]
EC50 (HeLa cells; [3]): > 250 µg/mL and > 730 µM

SMILES: CC(=NOCc1ccc([N+](=O)[O-])cc1)c1cc2ccccc2o1 [Compound 4]
EC50 (HeLa cells; [3]): > 250 µg/mL and > 810 µM

SMILES: CC(=NOCc1c(F)cccc1F)c1cc2ccccc2o1 [Compound 5]
EC50 (HeLa cells; [3]): > 250 µg/mL and > 830 µM

SMILES: CC(=NO)c1cc2ccccc2o1 [Compound 6, 2-acetylbenzofuran oxime]
EC50 (HeLa cells; [3]): > 250 µg/mL and > 1.43 mM

SMILES: CC(=NOCc1ccc(Cl)cc1Cl)c1cccs1 [Compound 7]
cytotoxicity / cell viability of HeLa cells at low concentration (HeLa cells; MTT): increased cell viability
EC50 (HeLa cells; [3]): > 250 µg/mL and > 830 µM

SMILES: CC(=NOCc1ccc(Br)cc1)c1cccs1 [Compound 8]
EC50 [1, 4]: 127 µg/mL and 410 µM
EC50 [1, 5]: 118 µg/mL and 380 µM
EC50 (A549 cells; [6]): 194 µg/mL and 620 µM
EC50 (A549 cells; [7]): 228 µg/mL and 740 µM
EC50 (HeLa cells; [3]): 610 µM
EC50 (HeLa cells; [8]): 40 µg/mL and 130 µM
EC50 (Caco-2 cells; [9]): 230 µg/mL and 740 µM
EC50 (Caco-2 cells; [10]): 118 µg/mL and 380 µM

SMILES: CC(=NOCc1ccc([N+](=O)[O-])cc1)c1cccs1 [Compound 9]
EC50 [1, 4]: 172 µg/mL and 620 µM
EC50 [1, 5]: 44.7 µg/mL and 160 µM
EC50 (A549 cells; [6]): 107 µg/mL and 390 µM
EC50 (A549 cells; [7]): 131 µg/mL and 470 µM
EC50 (HeLa cells; [3]): 460 µM
EC50 (HeLa cells; [8]): 6.9 µg/mL and 20 µM
EC50 (Caco-2 cells; [9]): 78 µg/mL and 280 µM
EC50 (Caco-2 cells; [10]): 105 µg/mL and 380 µM

SMILES: COc1ccc([N+](=O)[O-])c(CON=C(C)c2cccs2)c1 [Compound 10]
EC50 (HeLa cells; [3]): > 250 µg/mL and > 820 µM

SMILES: CC(=NOCCN(C)C)c1cccs1 [Compound 11]
EC50 (HeLa cells; [3]): > 250 µg/mL and > 1.18 mM

SMILES: CC(=NOCCN1CCOCC1)c1cccs1 [Compound 12]
cytotoxicity / cell viability of HeLa cells at low concentration (HeLa cells; MTT): increased cell viability
EC50 (HeLa cells; [3]): > 250 µg/mL and > 980 µM

SMILES: C/C(=N\OCCN)c1cccs1 [Compound 13, (E)-1-(thiophen-2-yl)ethanone O-2-aminoethyl oxime]
EC50 (HeLa cells; [3]): > 250 µg/mL and > 1.36 mM

SMILES: CCN(CC)CCO/N=C(\C)c1cccs1 [Compound 14, (E)-1-(thiophen-2-yl)ethanone O-2-(diethylamino)ethyl oxime]
EC50 (HeLa cells; [3]): > 250 µg/mL and > 1.04 mM

SMILES: C/C(=N\OCCCN)c1cccs1 [Compound 15, (E)-1-(thiophen-2-yl)ethanone O-3-aminopropyl oxime]
EC50 (HeLa cells; [3]): > 250 µg/mL and > 1.1 mM

SMILES: CC(=NOCCCN(C)C)c1cccs1 [Compound 16]
cytotoxicity / cell viability of HeLa cells at low concentration (HeLa cells; MTT): increased cell viability
EC50 (HeLa cells; [3]): > 250 µg/mL and > 1.1 mM

SMILES: CC(=NOCC(=O)O)c1cccs1 [Compound 17]
cytotoxicity / cell viability of HeLa cells at low concentration (HeLa cells; MTT): increased cell viability
EC50 (HeLa cells; [3]): > 250 µg/mL and > 1.25 mM

SMILES: O=C(O)CON=C1CCCCC1 [Compound 18, 2-(cyclohexylideneaminoxy)acetic acid]
viability at 24 h, 100 μg/mL [2]: ~20%
EC50 [1, 4]: 43.7 µg/mL and 260 µM
EC50 [1, 5]: 14.7 µg/mL and 90 µM
EC50 ([1]; 72 h culture, read-out: EC50 HDF): 90 to 100 µM
EC50 (A549 cells; [6]): 47.8 µg/mL and 280 µM
EC50 (A549 cells; [7]): 17.9 µg/mL and 100 µM
EC50 (A549 cells; A549, 72 h, read-out: EC50 A549): 90 to 100 µM
viability at 100 µg/mL (A549 cells; A549, 100 μg/mL, 24 h exposure): ~20%
viability of HeLa cells (of control) (HeLa cells; 100–250 μg/mL, MTT): below 20%
EC50 (HeLa cells; [3]): 32.3 µg/mL and 190 µM
EC50 (HeLa cells; [8]): 4.9 µg/mL and 30 µM
viability at 100 µg/mL (HeLa cells; Homo sapiens, HeLa, 100 μg/mL, 24 h exposure): ~20%
EC50 (Caco-2 cells; [9]): 44.4 µg/mL and 260 µM
EC50 (Caco-2 cells; [10]): 17.5 µg/mL and 100 µM
EC50 (Caco-2 cells; Caco-2, 72 h, read-out: EC50 Caco-2): 90 to 100 µM
viability at 100 µg/mL (Caco-2 cells; Caco-2, 100 μg/mL, 24 h exposure): ~20%

SMILES: CN(C)CCON=C1CCCCC1 [Compound 19]
EC50 (HeLa cells; [3]): > 250 µg/mL and > 1.36 mM

SMILES: C1CCC(=NOCCN2CCOCC2)CC1 [Compound 20]
EC50 (HeLa cells; [3]): > 250 µg/mL and > 1.1 mM

SMILES: CC(=NOCCN(C)C)c1ccccc1 [Compound 23]
EC50 (HeLa cells; [3]): 233 µg/mL and 1.13 mM

SMILES: COc1ccc(CO/N=C(\C)c2nccs2)cc1 [Compound 24, (E)-1-(thiazol-2-yl)ethanone O-4-methoxybenzyl oxime]
EC50 [1, 4]: 35.3 µg/mL and 130 µM
EC50 [1, 5]: 30.6 µg/mL and 120 µM
EC50 (A549 cells; [6]): > 250 µg/mL and > 950 µM
EC50 (A549 cells; [7]): 35.7 µg/mL and 140 µM
EC50 (HeLa cells; [3]): 110 µg/mL and 420 µM
EC50 (HeLa cells; [8]): 8.7 µg/mL and 30 µM
EC50 (Caco-2 cells; [9]): > 250 µg/mL and > 950 µM
EC50 (Caco-2 cells; [10]): 69.1 µg/mL and 260 µM

melting point: 67 to 70 °C
SMILES: C/C(=N\OCc1ccc(Br)cc1)c1nccs1 [Compound 25, (E)-1-(thiazol-2-yl)ethanone O-4-bromobenzyl oxime]
EC50 [1, 4]: 37.9 µg/mL and 120 µM
EC50 [1, 5]: 25.7 µg/mL and 80 µM
EC50 (A549 cells; [6]): > 250 µg/mL and > 800 µM
EC50 (A549 cells; [7]): 79.9 µg/mL and 260 µM
EC50 (HeLa cells; [3]): 130 µg/mL and 420 µM
EC50 (HeLa cells; [8]): 47.3 µg/mL and 150 µM
EC50 (Caco-2 cells; [9]): 70.8 µg/mL and 230 µM
EC50 (Caco-2 cells; [10]): 50.5 µg/mL and 160 µM

melting point: 113 to 117 °C
SMILES: CC(=NOCc1ccc(Cl)cc1Cl)c1cc2ccccc2s1 [Compound 26, (E)-1-(benzothiophene-2-yl)ethanone O-2,4-dichlorobenzyl oxime]
EC50 [1, 4]: 135 µg/mL and 380 µM
EC50 [1, 5]: 25.7 µg/mL and 70 µM
EC50 (A549 cells; [6]): 199 µg/mL and 570 µM
EC50 (A549 cells; [7]): 177 µg/mL and 510 µM
EC50 (HeLa cells; [3]): 121 µg/mL and 350 µM
EC50 (HeLa cells; [8]): 8.18 µg/mL and 20 µM
EC50 (Caco-2 cells; [9]): > 250 µg/mL and > 710 µM
EC50 (Caco-2 cells; [10]): 50.1 µg/mL and 140 µM
